The source of these data is US20260209208A1, “PHENYL-PYRAZOLE CARBOXAMIDE COMPOUNDS” (Acrivon Therapeutics, Inc., priority 2022, published 2026).

For one test, the target named is T1, Myt1 Kinase (Homo sapiens, UniProt Q99640).
T1 construct: endogenous in cells; host or cells: DAOY medulloblastoma cells (ATCC)
T1 sequence (Q99640 1-499): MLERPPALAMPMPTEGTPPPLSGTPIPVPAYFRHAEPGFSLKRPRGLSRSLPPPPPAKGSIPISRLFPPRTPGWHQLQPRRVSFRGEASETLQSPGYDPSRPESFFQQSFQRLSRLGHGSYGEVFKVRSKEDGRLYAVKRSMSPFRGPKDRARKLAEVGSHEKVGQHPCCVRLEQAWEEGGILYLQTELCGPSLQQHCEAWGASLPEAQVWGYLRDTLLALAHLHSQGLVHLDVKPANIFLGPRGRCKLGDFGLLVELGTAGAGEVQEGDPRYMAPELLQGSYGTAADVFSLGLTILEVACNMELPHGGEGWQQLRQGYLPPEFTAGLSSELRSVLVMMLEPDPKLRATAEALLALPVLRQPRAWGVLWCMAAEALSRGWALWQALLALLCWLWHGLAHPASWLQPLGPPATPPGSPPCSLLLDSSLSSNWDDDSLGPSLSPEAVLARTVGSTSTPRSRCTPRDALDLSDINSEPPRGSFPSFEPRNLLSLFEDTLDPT
Description: AlphaLISA SureFire Ultra Human Phospho-CDK1 (Thr14) target engagement assay in DAOY cells. The test is classed as cell-based. Conditions: 4 h incubation, Cdk1 phosphorylated on threonine 14, read-out: TE Myt1 Kinase (AlphaLISA). The protocol:
The following cellular assay was used to determine the extent to which the compounds disclosed herein inhibit phosphorylation of CDK1 at Thr 14.
(§1) DAOY medulloblastoma cell line (ATCC) was cultured in Minimum Essential Medium Eagle supplemented with 10% fetal calf serum (Sigma), 1% Penicillin-Streptomycin and 10 mM HEPES buffer (HyClone). Cell cultures were kept in a humidified incubator at 37° C. and 5% CO2. Cells were routinely tested for Mycoplasma contamination.
For target engagement assessment, quantification of Cdk1 phosphorylated on threonine 14 was detected using the AlphaLISA® SureFire® Ultra™ Human Phospho-CDK1 (Thr14) assay (Perkin Elmer). DAOY cells were seeded into tissue culture 96-well plates (VWR) to a density of 10,000 cells per well. Twenty-four hours post-seeding cells were incubated for 4 h with test compounds at concentrations ranging from 7 to 5000 nM. Cells were washed with PBS and lysed in 50 μl AlphaLISA® lysis buffer before freezing at −80° C. Ten μl of the lysate was transferred to 384 well plates and incubated with AlphaLISA® donor and acceptor beads according to the manufacturer's instructions. Dose response curves and EC50 values were calculated and visualized using GraphPad Prism version 9.

A further test has as its system DAOY cells. Description: Cell Titer Glo viability assay. As to conditions: Homo sapiens, 144 hours, Cell Titer Glo 2.0. The test is classed as cell-based. How it is done: as §1
DAOY cells were seeded at a density of 250 cells per well in tissue culture 384 well plates (Corning Costar). After overnight incubation, cells were incubated with test compounds at concentrations ranging from 0.17 to 10,000 nM. Viability compared to untreated control was assessed at 144 hours using Cell Titer Glo® 2.0 Viability Assay (Promega).
(ATP-based viability assays read luminescence as a measure of living cells.)

Test [1] concerns the target T2, recombinant human PMYT-1 (Myt1 kinase) (Homo sapiens, UniProt Q99640).
T2 construct: full length PMYT-1 was expressed by baculovirus in insect cells using a N-terminal GST tag; purchased Invitrogen A30984; host or cells: insect cells (baculovirus)
T2 sequence (Q99640 1-499): T1 sequence (Q99640 1-499)
Description: LanthaScreen Europium (Eu) Kinase Binding Assay for Myt1 kinase. As to conditions: TR-FRET tracer 178 displacement, GST-tagged full length PMYT-1, 60 min, room temperature; mean IC50; read-out: LANTHA Kinase Binding for PMyt1. An excerpt: We used a LanthaScreen Europium (Eu) Kinase Binding Assay to determine the binding of provided compounds to Myt1 kinase. The assay utilizes an Alexa Fluor 647-labeled ATP competitive kinase tracer that binds to the ATP binding site of a GST-tagged Myt1 kinase, while a europium (Eu) labeled antibody binds to the GST tag. The proximity of fluorescently labeled kinase tracer and europium (Eu) donor fluorophore antibody leads to fluorescence resonance energy transfer (FRET) to the fluorescence label (acceptor) upon excitation of the Eu (donor). Displacement of tracer from the ATP-binding site by a test compound disturbs the proximity between both labels thus lowering the FRET.
This time resolved-FRET binding assay was performed in white 384-well low volume plates (Greiner, cat #784075), at room temperature in kinase buffer A (KBA; Invitrogen cat # PV3189), consisting of 50 mM HEPES-NaOH (pH 7.5), 0.01% Brij-35, 10 mM MgCl2, and 1 mM EGTA. 5 μl of compound (diluted in reaction buffer, to 1% DMSO) were added to various wells in the plate, followed by 5 μl each of recombinant human PMYT-1 (full length PMYT-1 was expressed by baculovirus in insect cells using a N-terminal GST tag (MW: 80.8 kDa) (Invitrogen cat #A30984) and LanthaScreen Eu-anti-GST antibody (Invitrogen, cat #PV5594). After this, 5 μl of kinase tracer 178 (Invitrogen, cat #PV5593) was added to the plate and the plate was incubated for 60 minutes at room temperature. The final assay conditions in each well were: 3 nM tracer 178, 2.5 nM PMYT-1 and 1 nM Eu-labeled antibody in total assay volume of 15 μl. An Envision 2104 (Perkin-Elmer) Plate Reader with the following time-resolve fluorescence setting was used for performing LanthaScreen kinase binding assay. • Excitation 320 nm (30 nm bandpass) • Kinase Tracer Emission 665 nm (10 nm bandpass) • LanthaScreen Eu-anti-Tag Antibody Emission 615 nm (10 nm bandpass) • Dichroic Mirror Instrument dependent • Delay Time 100 μs • Integration Time 200 μs
To calculate the emission ratio, the acceptor/tracer emission ([…]) was divided by the antibody/donor emission ([…]) and the average of duplicate measurement was used for calculations. Data plotting, analysis of binding, and curve fitting was done using Excel add-in XLfit version 5.5.0.5 (IDBS, Guildford, United Kingdom).

`Cc1ccc(O)c(C)c1-n1nc(-c2ccco2)c(C(N)=O)c1N` (single isomer, unassigned) [Compound 104, 5-amino-3-(furan-2-yl)-1-(3-hydroxy-2,6-dimethylphenyl)-1H-pyrazole-4-carboxamide]: the EC50 on Myt1 Kinase is no more than 250 nM; in the test with DAOY cells, 500 to 1000 nM. For the same compound, the IC50 in test [1] is no more than 10 nM.

Consider `Cc1ccc(O)c(C)c1-n1nc(-c2cc(Br)co2)c(C(N)=O)c1N` (single isomer, unassigned) [Compound 106, 5-amino-3-(4-bromofuran-2-yl)-1-(3-hydroxy-2,6-dimethylphenyl)-1H-pyrazole-4-carboxamide], for which the EC50 was no more than 250 nM on Myt1 Kinase and no more than 500 nM in the test on DAOY cells. For the same compound, in test [1], the IC50 was no more than 10 nM.

Turning to `Cc1ccc(O)c(C)c1-n1nc(-c2cc3ccccc3o2)c(C(N)=O)c1N` (single isomer, unassigned) [Compound 107, 5-amino-3-(benzofuran-2-yl)-1-(3-hydroxy-2,6-dimethylphenyl)-1H-pyrazole-4-carboxamide], the EC50 on Myt1 Kinase was no more than 250 nM; in the test on DAOY cells it was no more than 500 nM. In test [1], the IC50 was no more than 10 nM.

For `Cc1ccc(O)c(C)c1-n1nc(-c2ccccc2)c(C(N)=O)c1N` [Compound 9, 5-amino-1-(3-hydroxy-2,6-dimethylphenyl)-3-phenyl-1H-pyrazole-4-carboxamide; trifluoroacetic acid], the results for the EC50 on Myt1 Kinase and in the test on DAOY cells were no more than 250 nM and greater than 1000 nM, respectively. In addition, the IC50 in test [1] was 10 to 100 nM.

On to `Cc1ccc(O)c(C)c1-n1nc(-c2ccccn2)c(C(N)=O)c1N` [Compound 35], for which the EC50 is no more than 250 nM on Myt1 Kinase and greater than 1000 nM in the test on DAOY cells. The IC50 in test [1] is no more than 10 nM.

On to `Cc1ccc(O)c(C)c1-n1nc(-c2cc3ccccc3o2)c(C(N)=O)c1N` [Compound 72, 5-amino-3-(1-benzofuran-2-yl)-1-(3-hydroxy-2,6-xylyl)-4-pyrazolecarboxamide], for which the EC50 on Myt1 Kinase is no more than 250 nM; in the test on DAOY cells, no more than 500 nM. The IC50 in test [1] was no more than 10 nM.

As for `Cc1ccc(O)c(C)c1-n1nc(-c2ccc(Br)o2)c(C(N)=O)c1N` [Compound 73, 5-amino-3-(5-bromo-2-furyl)-1-(3-hydroxy-2,6-xylyl)-4-pyrazolecarboxamide], the figures for the EC50 at Myt1 Kinase and with DAOY cells were no more than 250 nM and no more than 500 nM, respectively. Further, the IC50 in test [1] is no more than 10 nM.

On to `Cc1ccc(O)c(C)c1-n1nc(-c2cc(Br)co2)c(C(N)=O)c1N` [Compound 79, 5-amino-3-(4-bromo-2-furyl)-1-(3-hydroxy-2,6-xylyl)-4-pyrazolecarboxamide], for which the EC50 was no more than 250 nM on Myt1 Kinase and no more than 500 nM in the test on DAOY cells. In addition, the IC50 in test [1] is no more than 10 nM.

Consider `Cc1ccc(O)c(C)c1-n1nc(-c2ccc(Cl)o2)c(C(N)=O)c1N` [Compound 80, 5-amino-3-(5-chloro-2-furyl)-1-(3-hydroxy-2,6-xylyl)-4-pyrazolecarboxamide], for which the EC50 was no more than 250 nM on Myt1 Kinase and greater than 1000 nM in the test with DAOY cells. For the same compound, in test [1], the IC50 is no more than 10 nM.

As to `Cc1ccc(-c2nn(-c3c(C)ccc(O)c3C)c(N)c2C(N)=O)o1` [Compound 81, 5-amino-1-(3-hydroxy-2,6-xylyl)-3-(5-methyl-2-furyl)-4-pyrazolecarboxamide], the figures for the EC50 at Myt1 Kinase and in the test with DAOY cells were no more than 250 nM and 500 to 1000 nM, respectively. Also, in test [1], the IC50 was no more than 10 nM.

Regarding `Cc1ccc(O)c(C)c1-n1nc(-c2coc3ccccc23)c(C(N)=O)c1N` [Compound 82, 5-amino-3-(1-benzofuran-3-yl)-1-(3-hydroxy-2,6-xylyl)-4-pyrazolecarboxamide], the EC50 was 500 to 1000 nM at Myt1 Kinase and greater than 1000 nM in the test on DAOY cells. For the same compound, the IC50 in test [1] was no more than 10 nM.

`Cc1ccc(O)c(C)c1-n1nc(-c2ccc(-c3cccnc3)o2)c(C(N)=O)c1N` [Compound 86, 5-amino-1-(3-hydroxy-2,6-xylyl)-3-[5-(3-pyridyl)-2-furyl]-4-pyrazolecarboxamide]: the results for the EC50 at Myt1 Kinase and with DAOY cells were no more than 250 nM and 500 to 1000 nM, respectively. In test [1], the IC50 was no more than 10 nM.

As to `Cc1ccc(O)c(C)c1-n1nc(-c2ccc(-c3ccccc3)o2)c(C(N)=O)c1N` [Compound 87, 5-Amino-1-(3-hydroxy-2,6-xylyl)-3-(5-phenyl-2-furyl)-4-pyrazolecarboxamide], the EC50 on Myt1 Kinase was no more than 250 nM; in the test with DAOY cells, no more than 500 nM. The IC50 in test [1] is no more than 10 nM.

Consider `Cc1cc(-c2nn(-c3c(C)ccc(O)c3C)c(N)c2C(N)=O)oc1C` [Compound 89, 5-amino-3-(4,5-dimethyl-2-furyl)-1-(3-hydroxy-2,6-xylyl)-4-pyrazolecarboxamide], for which, at Myt1 Kinase, the EC50 lay within 250 to 500 nM. The IC50 in test [1] was no more than 10 nM.

Regarding `NC(=O)c1c(-c2ccco2)nn(-c2c(Cl)ccc(O)c2Cl)c1N` [Compound 91, 5-amino-1-(2,6-dichloro-3-hydroxyphenyl)-3-(2-furyl)-4-pyrazolecarboxamide], the EC50 on Myt1 Kinase was greater than 1000 nM. Besides, in test [1], the IC50 lay in the range of 10 to 100 nM.

Turning to `NC(=O)c1c(-c2cc(Br)co2)nn(-c2c(Cl)ccc(O)c2Cl)c1N` [Compound 92, 5-amino-3-(4-bromo-2-furyl)-1-(2,6-dichloro-3-hydroxyphenyl)-4-pyrazolecarboxamide], the EC50 at Myt1 Kinase is 500 to 1000 nM. Also, the IC50 in test [1] lay within 10 to 100 nM.

On to `NC(=O)c1c(-c2cc3ccccc3o2)nn(-c2c(Cl)ccc(O)c2Cl)c1N` [Compound 93, 5-amino-3-(1-benzofuran-2-yl)-1-(2,6-dichloro-3-hydroxyphenyl)-4-pyrazolecarboxamide], for which, at Myt1 Kinase, the EC50 lay within 500 to 1000 nM. Further, the IC50 in test [1] was in the range of 10 to 100 nM.

`Cc1ccc(O)c(C)c1-n1nc(-c2ccc(-c3ccccn3)o2)c(C(N)=O)c1N` [Compound 100, 5-amino-1-(3-hydroxy-2,6-xylyl)-3-[5-(2-pyridyl)-2-furyl]-4-pyrazolecarboxamide]: the EC50 is 250 to 500 nM at Myt1 Kinase and greater than 1000 nM in the test with DAOY cells.

Turning to `Cc1ccc(O)c(C)c1-n1nc(-c2ccsc2)c(C(N)=O)c1N` [Compound 120], the EC50 at Myt1 Kinase is 250 to 500 nM. In test [1], the IC50 was no more than 10 nM.

With `Cc1ccc(O)c(C)c1-n1nc(-c2nccn2C)c(C(N)=O)c1N` [Compound 124], the EC50 at Myt1 Kinase was greater than 1000 nM. The IC50 in test [1] was 10 to 100 nM.

Regarding `Cc1ccc(O)c(C)c1-n1nc(-c2ncc[nH]2)c(C(N)=O)c1N` [Compound 125], at Myt1 Kinase, the EC50 was 500 to 1000 nM. Also, the IC50 in test [1] is no more than 10 nM.
